According to patent publication US9695155B2, “Herbicidal substituted pyrimidinyloxy benzene compounds” (E. I. DU PONT DE NEMOURS AND COMPANY, priority 2013, dated 2017):

Legend:
[1] = system: morningglory; assay: Test A preemergence; type: in vivo, Ipomoea spp.; conditions: for Morningglory plant response rating (0 to 100 scale): 125 g ai/ha
In short: (§1)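 Pre- and postemergence greenhouse screen. Soil: loam + sand. Spray carrier: solvent mixture, non-phytotoxic, with surfactant. Post timing at 1–2 leaves, height 2–10 cm. Readout: visual injury on a 0–100 scale roughly 10 days after application, untreated plants as reference.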

[2] = system: wheat; assay: Test A postemergence; type: in vivo, Triticum aestivum; conditions: 0 to 100 scale where 0 is no effect and 100 is complete control
In short: as §1

[3] = system: waterhemp; assay: Test C postemergence; type: in vivo, Amaranthus rudis; conditions: for Waterhemp plant response rating: 31 g ai/ha
In short: (§2)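 Whole-plant greenhouse test with surfactant-containing solvent formulation, applied preemergence to sown loam–sand pots or postemergence to 2–18 cm plants. Scored by eye 13 to 15 days on, 0–100 scale.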

[4] = system: Heteranthera limosa; assay: Test B flooded paddy test; type: in vivo; conditions: Flood, 250 g ai/ha, 0 to 100 scale where 0 is no effect and 100 is complete control
In short: (§3)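 Flooded to 3 cm at the 2-leaf stage, pots received compound through the paddy water and were kept at that depth under greenhouse conditions. After 13–15 days, effect was rated by eye relative to controls, 0 = none and 100 = complete control.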

[5] = system: ragweed; assay: Test C preemergence; type: in vivo, Ambrosia elatior
In short: as §2

[6] = system: morningglory; assay: Test A postemergence; type: in vivo, Ipomoea spp.; conditions: 0 to 100 scale where 0 is no effect and 100 is complete control; for Morningglory plant response rating: 125 g ai/ha
In short: as §1

[7] = system: velvetleaf; assay: Test C preemergence; type: in vivo, Abutilon theophrasti
In short: as §2

[8] = system: blackgrass; assay: Test C preemergence; type: in vivo, Alopecurus myosuroides
In short: as §2

[9] = system: johnsongrass; assay: Test C preemergence; type: in vivo, Sorghum halepense
In short: as §2

[10] = system: Italian ryegrass; assay: Test C preemergence; type: in vivo, Lolium multiflorum
In short: as §2

[11] = system: wheat; assay: Test A preemergence; type: in vivo, Triticum aestivum; conditions: for Wheat plant response rating (0 to 100 scale): 125 g ai/ha
In short: as §1

[12] = system: velvetleaf; assay: Test A postemergence; type: in vivo, Abutilon theophrasti; conditions: 0 to 100 scale where 0 is no effect and 100 is complete control; for Velvetleaf plant response rating: 125 g ai/ha
In short: as §1

[13] = system: velvetleaf; assay: Test A preemergence; type: in vivo, Abutilon theophrasti; conditions: for Velvetleaf plant response rating (0 to 100 scale): 125 g ai/ha
In short: as §1

[14] = system: wheat, winter; assay: Test C preemergence; type: in vivo, Triticum aestivum
In short: as §2

[15] = system: sedge, umbrella; assay: Test B flooded paddy test; type: in vivo, Cyperus difformis; conditions: Flood, 250 g ai/ha, 0 to 100 scale where 0 is no effect and 100 is complete control
In short: as §3

[16] = system: pigweed; assay: Test C postemergence; type: in vivo, Amaranthus retroflexus; conditions: for Pigweed plant response rating: 31 g ai/ha
In short: as §2

[17] = postemergence, visual rating, scale 0 to 100 (0 no effect, 100 complete control), 13 to 15 days
[18] = 500 g ai/ha, 0 to 100 scale where 0 is no effect and 100 is complete control
[19] = 125 g ai/ha, postemergence, visual rating, scale 0 to 100 (0 no effect, 100 complete control)
[20] = Postemergence, 62 g ai/ha, scale 0 to 100 (0 no effect, 100 complete control), 13 to 15 days
[21] = 125 g ai/ha, preemergence, scale 0 (no effect) to 100 (complete control)
[22] = 250 g ai/ha, preemergence, scale 0 (no effect) to 100 (complete control)
[23] = Preemergence, 62 g ai/ha, scale 0 to 100, 0 no effect, 100 complete control

## FC(F)c1cccc(Oc2ncc(Cl)cn2)c1-n1cc(Br)cn1 [Compound 194, 2-[2-(4-bromo-1H-pyrazol-1-yl)-3-(difluoromethyl)phenoxy]-5-chloropyrimidine]
[1]
  Morningglory plant response rating (0 to 100 scale): 60
[1]; Ipomoea, pre-emergence, 240 h, 500 g ai/ha, 0 to 100 scale where 0 is no effect and 100 is complete control, read-out: Morningglory plant response rating
  pest or weed control at 500 g/ha: 100%
[2]; Triticum aestivum, post-emergence, 240 h, 125 g ai/ha, read-out: Wheat plant response rating
  plant injury at 125 g/ha: 30%
[2]; Triticum aestivum, post-emergence, 240 h, 500 g ai/ha, read-out: Plant response rating, Wheat
  plant injury at 500 g/ha: 60%
[3]; [17]
  Waterhemp plant response rating: 80
[3]; Amaranthus tuberculatus, post-emergence, 125 g ai/ha, postemergence, visual rating, scale 0 to 100 (0 no effect, 100 complete control), read-out: Plant response rating, Waterhemp
  pest or weed control at 125 g/ha: 85%
[3]; Amaranthus tuberculatus, post-emergence, 250 g ai/ha, postemergence, read-out: Plant response rating (0 to 100), Waterhemp
  pest or weed control at 250 g/ha: 90%
[3]; Amaranthus tuberculatus, post-emergence, Postemergence, 62 g ai/ha, scale 0 to 100 (0 no effect, 100 complete control), 13 to 15 days, read-out: Plant response rating, Waterhemp
  pest or weed control at 62 g/ha: 80%
[4]; Heteranthera limosa, read-out: Plant response rating, Ducksalad
  pest or weed control at 250 g/ha: 98%
[5]; Ambrosia artemisiifolia, pre-emergence, 125 g ai/ha, preemergence, scale 0 (no effect) to 100 (complete control), read-out: Ragweed plant response rating
  pest or weed control at 125 g/ha: 20%
[5]; Ambrosia artemisiifolia, pre-emergence, 250 g ai/ha, preemergence, scale 0 (no effect) to 100 (complete control), read-out: Ragweed plant response rating
  pest or weed control at 250 g/ha: 75%
[5]; Ambrosia artemisiifolia, pre-emergence, Preemergence, 62 g ai/ha, scale 0 to 100, 0 no effect, 100 complete control, read-out: Plant response rating, Ragweed
  pest or weed control at 62 g/ha: 10%
[6]
  Morningglory plant response rating: 90
[6]; Ipomoea, post-emergence, 240 h, 500 g ai/ha, read-out: Plant response rating, Morningglory
  pest or weed control at 500 g/ha: 100%
[7]; Abutilon theophrasti, pre-emergence, 125 g ai/ha, preemergence, scale 0 (no effect) to 100 (complete control), read-out: Velvetleaf plant response rating
  pest or weed control at 125 g/ha: 100%
[7]; Abutilon theophrasti, pre-emergence, 250 g ai/ha, preemergence, scale 0 (no effect) to 100 (complete control), read-out: Velvetleaf plant response rating
  pest or weed control at 250 g/ha: 100%
[7]; Abutilon theophrasti, pre-emergence, Preemergence, 62 g ai/ha, scale 0 to 100, 0 no effect, 100 complete control, read-out: Plant response rating, Velvetleaf
  pest or weed control at 62 g/ha: 75%
[8]; Alopecurus myosuroides, pre-emergence, 125 g ai/ha, preemergence, scale 0 (no effect) to 100 (complete control), read-out: Blackgrass plant response rating
  pest or weed control at 125 g/ha: 90%
[8]; Alopecurus myosuroides, pre-emergence, 250 g ai/ha, preemergence, scale 0 (no effect) to 100 (complete control), read-out: Blackgrass plant response rating
  pest or weed control at 250 g/ha: 90%
[8]; Alopecurus myosuroides, pre-emergence, Preemergence, 62 g ai/ha, scale 0 to 100, 0 no effect, 100 complete control, read-out: Plant response rating, Blackgrass
  pest or weed control at 62 g/ha: 50%
[9]; Sorghum halepense, pre-emergence, 125 g ai/ha, preemergence, scale 0 (no effect) to 100 (complete control), read-out: Johnsongrass plant response rating
  pest or weed control at 125 g/ha: 80%
[9]; Sorghum halepense, pre-emergence, 250 g ai/ha, preemergence, scale 0 (no effect) to 100 (complete control), read-out: Johnsongrass plant response rating
  pest or weed control at 250 g/ha: 95%
[9]; Sorghum halepense, pre-emergence, Preemergence, 62 g ai/ha, scale 0 to 100, 0 no effect, 100 complete control, read-out: Plant response rating, Johnsongrass
  pest or weed control at 62 g/ha: 25%
[10]; Lolium multiflorum, pre-emergence, 125 g ai/ha, preemergence, scale 0 (no effect) to 100 (complete control), read-out: Ryegrass, Italian plant response rating
  pest or weed control at 125 g/ha: 70%
[10]; Lolium multiflorum, pre-emergence, 250 g ai/ha, preemergence, scale 0 (no effect) to 100 (complete control), read-out: Ryegrass, Italian plant response rating
  pest or weed control at 250 g/ha: 90%
[10]; Lolium multiflorum, pre-emergence, Preemergence, 62 g ai/ha, scale 0 to 100, 0 no effect, 100 complete control, read-out: Plant response rating, Ryegrass, Italian
  pest or weed control at 62 g/ha: 20%
[11]
  Wheat plant response rating (0 to 100 scale): 20
[11]; Triticum aestivum, pre-emergence, 240 h, 500 g ai/ha, 0 to 100 scale where 0 is no effect and 100 is complete control, read-out: Wheat plant response rating
  plant injury at 500 g/ha: 30%
[12]
  Velvetleaf plant response rating: 100
[12]; Abutilon theophrasti, post-emergence, 240 h, 500 g ai/ha, read-out: Plant response rating, Velvetleaf
  pest or weed control at 500 g/ha: 100%
[13]
  Velvetleaf plant response rating (0 to 100 scale): 80
[13]; Abutilon theophrasti, pre-emergence, 240 h, 500 g ai/ha, 0 to 100 scale where 0 is no effect and 100 is complete control, read-out: Velvetleaf plant response rating
  pest or weed control at 500 g/ha: 100%
[14]; Triticum aestivum, pre-emergence, 125 g ai/ha, preemergence, scale 0 (no effect) to 100 (complete control), read-out: Wheat plant response rating
  plant injury at 125 g/ha: 0%
[14]; Triticum aestivum, pre-emergence, 250 g ai/ha, preemergence, scale 0 (no effect) to 100 (complete control), read-out: Wheat plant response rating
  plant injury at 250 g/ha: 35%
[14]; Triticum aestivum, pre-emergence, Preemergence, 62 g ai/ha, scale 0 to 100, 0 no effect, 100 complete control, read-out: Plant response rating, Wheat
  plant injury at 62 g/ha: 0%
[15]; Cyperus difformis, read-out: Plant response rating, Sedge, Umbrella
  pest or weed control at 250 g/ha: 95%
[16]; [17]
  Pigweed plant response rating: 75
[16]; Amaranthus retroflexus, post-emergence, 125 g ai/ha, postemergence, visual rating, scale 0 to 100 (0 no effect, 100 complete control), read-out: Plant response rating, Pigweed
  pest or weed control at 125 g/ha: 90%
[16]; Amaranthus retroflexus, post-emergence, 250 g ai/ha, postemergence, read-out: Plant response rating (0 to 100), Pigweed
  pest or weed control at 250 g/ha: 95%
[16]; Amaranthus retroflexus, post-emergence, Postemergence, 62 g ai/ha, scale 0 to 100 (0 no effect, 100 complete control), 13 to 15 days, read-out: Plant response rating, Pigweed
  pest or weed control at 62 g/ha: 75%

## N#Cc1cccc(Oc2ncc(Cl)cn2)c1-n1cc(I)cn1 [Compound 204]
[1]
  Morningglory plant response rating (0 to 100 scale): 90
[1]; [18]
  Morningglory plant response rating: 90
[2]; 125 g ai/ha
  Wheat plant response rating: 40
[2]; 500 g ai/ha
  Plant response rating, Wheat: 70
[3]; [17]
  Waterhemp plant response rating: 85
[3]; [19]
  Plant response rating, Waterhemp: 90
[3]; 250 g ai/ha, postemergence
  Plant response rating (0 to 100), Waterhemp: 95
[3]; [20]
  Plant response rating, Waterhemp: 90
[4]
  Plant response rating, Ducksalad: 70
[5]; [21]
  Ragweed plant response rating: 5
[5]; [22]
  Ragweed plant response rating: 85
[5]; [23]
  Plant response rating, Ragweed: 5
[6]
  Morningglory plant response rating: 80
[6]; 500 g ai/ha
  Plant response rating, Morningglory: 100
[7]; [21]
  Velvetleaf plant response rating: 98
[7]; [22]
  Velvetleaf plant response rating: 98
[7]; [23]
  Plant response rating, Velvetleaf: 85
[8]; [21]
  Blackgrass plant response rating: 90
[8]; [22]
  Blackgrass plant response rating: 95
[8]; [23]
  Plant response rating, Blackgrass: 80
[9]; [21]
  Johnsongrass plant response rating: 95
[9]; [22]
  Johnsongrass plant response rating: 98
[9]; [23]
  Plant response rating, Johnsongrass: 80
[10]; [21]
  Ryegrass, Italian plant response rating: 75
[10]; [22]
  Ryegrass, Italian plant response rating: 95
[10]; [23]
  Plant response rating, Ryegrass, Italian: 35
[11]
  Wheat plant response rating (0 to 100 scale): 40
[11]; [18]
  Wheat plant response rating: 60
[12]
  Velvetleaf plant response rating: 100
[12]; 500 g ai/ha
  Plant response rating, Velvetleaf: 100
[13]
  Velvetleaf plant response rating (0 to 100 scale): 80
[13]; [18]
  Velvetleaf plant response rating: 100
[14]; [21]
  Wheat plant response rating: 30
[14]; [22]
  Wheat plant response rating: 60
[14]; [23]
  Plant response rating, Wheat: 5
[15]
  Plant response rating, Sedge, Umbrella: 90
[16]; [17]
  Pigweed plant response rating: 80
[16]; [19]
  Plant response rating, Pigweed: 95
[16]; 250 g ai/ha, postemergence
  Plant response rating (0 to 100), Pigweed: 98
[16]; [20]
  Plant response rating, Pigweed: 95
